In PubChem BioAssay AID330 (DTP/NCI, 2004):
“And” between values parts separate entries of the source, which are not always exact repeats. Identical values can stand only once. Inconclusive results and toxic doses are left out.

Test system: P388 leukemia ip, CD2F1 mice, survival T/C
Assay: NCI In Vivo Anticancer Drug Screen. Data for tumor model P388 Leukemia (intraperitoneal) in CD2F1 (CDF1) mice
Settings: endpoint: median survival time, higher = longer survival
How it was run: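 Mice carrying the transplanted tumor received test compound or vehicle. Survival was recorded in each group, and the value is the treated-group measurement divided by that of the vehicle-treated control group.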

[1] = dose: 60.0 mg/kg/injection, schedule: Q01DX005 (ip), vehicle: Klucel (hydroxypropylcellulose) (HPC)
[2] = dose: 120.0 mg/kg/injection, schedule: Q01DX005 (ip), vehicle: Klucel (hydroxypropylcellulose) (HPC)
[3] = dose: 240.0 mg/kg/injection, schedule: Q01DX005 (ip), vehicle: Klucel (hydroxypropylcellulose) (HPC)
[4] = dose: 50.0 mg/kg/injection, schedule: Q01DX009 (ip), vehicle: saline
[5] = dose: 100.0 mg/kg/injection, schedule: Q01DX009 (ip), vehicle: saline
[6] = dose: 200.0 mg/kg/injection, schedule: Q01DX009 (ip), vehicle: saline
[7] = dose: 25.0 mg/kg/injection, schedule: Q01DX005 (ip), vehicle: Klucel (hydroxypropylcellulose) (HPC)
[8] = dose: 50.0 mg/kg/injection, schedule: Q01DX005 (ip), vehicle: Klucel (hydroxypropylcellulose) (HPC)
[9] = dose: 50.0 mg/kg/injection, schedule: Q01DX009 (ip), vehicle: Klucel (hydroxypropylcellulose) (HPC)
[10] = dose: 100.0 mg/kg/injection, schedule: Q01DX005 (ip), vehicle: Klucel (hydroxypropylcellulose) (HPC)
[11] = dose: 100.0 mg/kg/injection, schedule: Q01DX009 (ip), vehicle: Klucel (hydroxypropylcellulose) (HPC)
[12] = dose: 200.0 mg/kg/injection, schedule: Q01DX005 (ip), vehicle: Klucel (hydroxypropylcellulose) (HPC)
[13] = dose: 200.0 mg/kg/injection, schedule: Q01DX009 (ip), vehicle: Klucel (hydroxypropylcellulose) (HPC)
[14] = dose: 50.0 mg/kg/injection, schedule: Q01DX009 (ip), vehicle: saline with Tween-80
[15] = dose: 200.0 mg/kg/injection, schedule: Q01DX009 (ip), vehicle: saline with Tween-80
[16] = dose: 100.0 mg/kg/injection, schedule: Q01DX009 (ip), vehicle: saline with Tween-80
[17] = dose: 60.0 mg/kg/injection, schedule: Q01DX005 (ip), vehicle: saline with Tween-80
[18] = dose: 120.0 mg/kg/injection, schedule: Q01DX005 (ip), vehicle: saline with Tween-80
[19] = dose: 240.0 mg/kg/injection, schedule: Q01DX005 (ip), vehicle: saline with Tween-80
[20] = dose: 50.0 mg/kg/injection, schedule: Q01DX005 (ip), vehicle: saline with Tween-80
[21] = dose: 25.0 mg/kg/injection, schedule: Q01DX009 (ip), vehicle: saline with Tween-80

SMILES: Nc1nc(/C=C\c2ccccc2)cc(-c2cc(/C=C\c3ccccc3)nc(N)n2)n1
- T/C (dose: 30.0 mg/kg/injection, schedule: Q01DX005 (ip), vehicle: Klucel (hydroxypropylcellulose) (HPC)): 97 % of control
- T/C [1]: 90 % of control and 94 % of control
- T/C [2]: 97 % of control
- T/C [3]: 95 % of control

SMILES: CC1=NC(=O)CC2=C1C(C)N(Cc1ccccc1)C2=O (centres undefined)
- T/C [4]: 98 % of control
- T/C [5]: 94 % of control
- T/C [6]: 99 % of control

SMILES: COC1C(C)OC(OC2CC(C)(O)C(C(=O)O)c3cc4c(c(O)c32)C(=O)c2c(O)cc3c(c2C4=O)OC2OC3(C)C(O)C(N(C)C)C2O)C(OC)C1(C)OC (centres undefined)
- T/C (dose: 1.25 mg/kg/injection, schedule: Q04DX003 (ip), vehicle: other): 119 % of control
- T/C (dose: 2.5 mg/kg/injection, schedule: Q04DX003 (ip), vehicle: other): 113 % of control
- T/C (dose: 5.0 mg/kg/injection, schedule: Q04DX003 (ip), vehicle: other): 122 % of control
- T/C (dose: 20.0 mg/kg/injection, schedule: Q04DX003 (ip), vehicle: other): 155 % of control

SMILES: c1ccc2c(c1)Cc1cc3ccccc3nc1-2
- T/C [7]: 94 % of control
- T/C (dose: 25.0 mg/kg/injection, schedule: Q01DX009 (ip), vehicle: Klucel (hydroxypropylcellulose) (HPC)): 94 % of control
- T/C [8]: 100 % of control
- T/C [9]: 91 % of control
- T/C [10]: 100 % of control
- T/C [11]: 106 % of control
- T/C [12]: 97 % of control
- T/C [13]: 100 % of control

SMILES: COc1ccc(CN2COc3c(cc(C)c4cccnc34)C2)cc1
- T/C [14]: 98 % of control
- T/C [15]: 111 % of control

SMILES: c1ccc2c3cc(cc2c1)OCCOCCOCCOCCOCCOc1ccc2ccccc2c1-3
- T/C [14]: 101 % of control
- T/C [16]: 101 % of control
- T/C [15]: 103 % of control

SMILES: CC(=O)OC1CSS(=O)CC1OC(C)=O (centres undefined)
- T/C (dose: 100.0 mg/kg/injection, schedule: Q04DX002 (ip), vehicle: saline): 100 % of control
- T/C (dose: 200.0 mg/kg/injection, schedule: Q04DX002 (ip), vehicle: saline): 109 % of control

SMILES: Cc1cc(N2C(=O)CSC2=S)ccc1Cl
- T/C (dose: 50.0 mg/kg/injection, schedule: Q01DX009 (ip), vehicle: suspension in saline): 105 % of control
- T/C (dose: 100.0 mg/kg/injection, schedule: Q01DX009 (ip), vehicle: suspension in saline): 99 % of control
- T/C (dose: 200.0 mg/kg/injection, schedule: Q01DX009 (ip), vehicle: suspension in saline): 106 % of control

SMILES: Clc1ccc(S[As](Sc2ccc(Cl)cc2)Sc2ccc(Cl)cc2)cc1
- T/C (dose: 100.0 mg/kg/injection, schedule: Q04DX002 (ip), vehicle: Klucel (hydroxypropylcellulose) (HPC)): 121 % of control
- T/C (dose: 200.0 mg/kg/injection, schedule: Q04DX002 (ip), vehicle: Klucel (hydroxypropylcellulose) (HPC)): 114 % of control
- T/C (dose: 400.0 mg/kg/injection, schedule: Q04DX002 (ip), vehicle: Klucel (hydroxypropylcellulose) (HPC)): 113 % of control

SMILES: CC(C)C(=O)CP(=O)(O)O
- T/C [4]: 106 % of control
- T/C [5]: 101 % of control
- T/C [6]: 108 % of control

SMILES: C=C(C1=CC(=O)C(C)=C(OC(=O)C2(C)OC2C)C1=O)C(CC=C(C)C)OC(=O)/C(C)=C/C (centres undefined)
- T/C (dose: 1.56 mg/kg/injection, schedule: Q01DX005 (ip), vehicle: Klucel (hydroxypropylcellulose) (HPC)): 97 % of control
- T/C (dose: 3.12 mg/kg/injection, schedule: Q01DX005 (ip), vehicle: Klucel (hydroxypropylcellulose) (HPC)): 97 % of control
- T/C (dose: 6.25 mg/kg/injection, schedule: Q01DX005 (ip), vehicle: Klucel (hydroxypropylcellulose) (HPC)): 99 % of control
- T/C (dose: 12.5 mg/kg/injection, schedule: Q01DX005 (ip), vehicle: Klucel (hydroxypropylcellulose) (HPC)): 99 % of control
- T/C [7]: 99 % of control

SMILES: CCc1nc(N)nc(N)c1-c1ccc(Cl)c(N=CN(C)C)c1
- T/C [17]: 102 % of control
- T/C [18]: 108 % of control
- T/C [19]: 108 % of control

SMILES: C=C(C)CCP(=S)(OCC)OCC
- T/C [17]: 102 % of control
- T/C [18]: 101 % of control
- T/C [19]: 100 % of control

SMILES: COc1cc(-c2ccc(N=Nc3cc(S(=O)(=O)O)c4ccccc4c3O)c(OC)c2)ccc1N=Nc1cc(S(=O)(=O)O)c2ccccc2c1O
- T/C [5]: 99 % of control
- T/C [6]: 104 % of control
- T/C (dose: 400.0 mg/kg/injection, schedule: Q01DX009 (ip), vehicle: saline): 115 % of control

SMILES: NCCCNCCCNc1nc2nc(N)nc(N)c2nc1-c1ccc([N+](=O)[O-])cc1
- T/C (dose: 6.25 mg/kg/injection, schedule: Q01DX005 (ip), vehicle: saline with Tween-80): 99 % of control
- T/C (dose: 12.5 mg/kg/injection, schedule: Q01DX005 (ip), vehicle: saline with Tween-80): 101 % of control
- T/C (dose: 25.0 mg/kg/injection, schedule: Q01DX005 (ip), vehicle: saline with Tween-80): 105 % of control
- T/C [20]: 97 % of control

SMILES: C[n+]1ccc(NC(=O)c2ccc(NC(=O)c3cccc(C(=O)Nc4ccc(C(=O)Nc5cc[n+](C)cc5)cc4)c3)cc2)cc1
- T/C (dose: 6.25 mg/kg/injection, schedule: Q04DX003 (ip), vehicle: saline with Tween-80): 112 % of control
- T/C (dose: 12.5 mg/kg/injection, schedule: Q04DX003 (ip), vehicle: saline with Tween-80): 120 % of control
- T/C [21]: 159 % of control
- T/C [14]: 195 % of control
- T/C (dose: 50.0 mg/kg/injection, schedule: Q04DX003 (ip), vehicle: saline with Tween-80): 154 % of control
- T/C (dose: 66.0 mg/kg/injection, schedule: Q04DX003 (ip), vehicle: saline with Tween-80): 170 % of control

SMILES: Cc1ccc(SSC(=S)Nc2ccccc2)cc1
- T/C (dose: 12.5 mg/kg/injection, schedule: Q01DX009 (ip), vehicle: saline with Tween-80): 93 % of control
- T/C [21]: 90 % of control
- T/C [14]: 100 % of control and 114 % of control
- T/C [16]: 114 % of control

SMILES: c1cc2c3c(cccc3c1)NC(c1ccc3c(c1)OCO3)N2
- T/C [8]: 100 % of control
- T/C [10]: 100 % of control
- T/C [12]: 95 % of control

SMILES: O=C(Nc1ccc(F)cc1F)Oc1ccc2cc(Br)ccc2c1
- T/C (dose: 50.0 mg/kg/injection, schedule: Q01DX009 (ip), vehicle: saline + alcohol): 97 % of control
- T/C (dose: 100.0 mg/kg/injection, schedule: Q01DX009 (ip), vehicle: saline + alcohol): 91 % of control
- T/C (dose: 200.0 mg/kg/injection, schedule: Q01DX009 (ip), vehicle: saline + alcohol): 100 % of control

SMILES: COC(=O)c1nc(=S)[nH]c(C(=O)OC)c1C(=O)c1ccc(Cl)c(Cl)c1
- T/C [1]: 89 % of control
- T/C [2]: 92 % of control
- T/C [3]: 95 % of control

SMILES: CSC(=S)N/N=C\c1c(CO)cnc(C)c1O
- T/C (dose: 100.0 mg/kg/injection, schedule: Q04DX002 (ip), vehicle: saline with Tween-80): 116 % of control
- T/C (dose: 400.0 mg/kg/injection, schedule: Q04DX002 (ip), vehicle: saline with Tween-80): 113 % of control

SMILES: COc1ccc(C(=O)CCN(C)C)c2ccccc12
- T/C (dose: 50.0 mg/kg/injection, schedule: Q01DX005 (ip), vehicle: saline): 102 % of control
- T/C (dose: 100.0 mg/kg/injection, schedule: Q01DX005 (ip), vehicle: saline): 100 % of control
- T/C (dose: 200.0 mg/kg/injection, schedule: Q01DX005 (ip), vehicle: saline): 93 % of control

SMILES: CC(C)(C)SC(=S)SCC(=O)c1cc2ccccc2o1
- T/C [20]: 100 % of control
- T/C (dose: 100.0 mg/kg/injection, schedule: Q01DX005 (ip), vehicle: saline with Tween-80): 93 % of control
- T/C (dose: 200.0 mg/kg/injection, schedule: Q01DX005 (ip), vehicle: saline with Tween-80): 93 % of control

SMILES: CCCCCCC(=O)C(=O)c1ccc(O)cc1O
- T/C [9]: 113 % of control
- T/C [11]: 109 % of control
- T/C [13]: 109 % of control

SMILES: CC1CN1P(=O)(OCCCl)N1CC1C (centres undefined)
- T/C (dose: 44.0 mg/kg/injection, schedule: Q04DX003 (ip), vehicle: saline): 113 % of control
- T/C [4]: 120 % of control
- T/C (dose: 66.0 mg/kg/injection, schedule: Q04DX003 (ip), vehicle: saline): 113 % of control
- T/C [5]: 120 % of control
- T/C (dose: 100.0 mg/kg/injection, schedule: Q04DX003 (ip), vehicle: saline): 118 % of control
- T/C (dose: 150.0 mg/kg/injection, schedule: Q04DX003 (ip), vehicle: saline): 86 % of control
